Tests used:
[1] = target: T1, tr-MetEEco (Escherichia coli, UniProt P25665); assay: HPLC and MS of products; assay type: biochemical; conditions: 2 mM D,L-homocysteine, 150 µM 5-methyl-THF-Glu3, pH 7.2, 100 µM MgSO4, 100 µM ZnSO4, 10 mM DTT, 37 °C
T1 construct: gene metE; tandem-repeat MetE, full length, 753 residues, 85 kDa, recombinant in E. coli DH10B (pBAD30_MetE), anion exchange; source strain of the gene not in main text (K-12 likely)
T1 sequence (P25665 2-753): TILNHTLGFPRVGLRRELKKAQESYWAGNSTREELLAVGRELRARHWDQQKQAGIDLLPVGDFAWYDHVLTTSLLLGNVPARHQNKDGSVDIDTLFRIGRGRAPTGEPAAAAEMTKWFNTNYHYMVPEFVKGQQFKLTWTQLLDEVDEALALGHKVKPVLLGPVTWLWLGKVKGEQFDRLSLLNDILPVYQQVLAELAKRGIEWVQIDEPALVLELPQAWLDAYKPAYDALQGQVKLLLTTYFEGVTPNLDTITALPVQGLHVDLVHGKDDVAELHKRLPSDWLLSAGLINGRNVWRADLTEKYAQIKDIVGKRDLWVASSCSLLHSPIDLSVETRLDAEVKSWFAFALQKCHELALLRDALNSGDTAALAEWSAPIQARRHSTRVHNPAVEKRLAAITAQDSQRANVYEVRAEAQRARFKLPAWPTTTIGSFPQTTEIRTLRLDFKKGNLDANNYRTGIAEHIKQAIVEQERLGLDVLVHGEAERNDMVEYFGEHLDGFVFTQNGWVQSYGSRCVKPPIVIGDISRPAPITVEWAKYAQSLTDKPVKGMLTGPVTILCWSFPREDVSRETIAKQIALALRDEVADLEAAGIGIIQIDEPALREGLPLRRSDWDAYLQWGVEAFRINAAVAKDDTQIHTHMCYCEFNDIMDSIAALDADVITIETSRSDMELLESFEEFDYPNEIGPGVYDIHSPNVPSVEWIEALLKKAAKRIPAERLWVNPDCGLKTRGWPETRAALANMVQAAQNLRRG

[2] = target: T2, core-MetECBDB (Dehalococcoides mccartyi, UniProt A0A916P3S8); conditions: 2 mM D,L-homocysteine, 50 mM Tris/HCl pH 6.5, 150 mM NaCl, 10% glycerol, anoxic, 0.1 µM enzyme; Hill fit
T2 construct: gene cbdbA481

[3] = substrate: NC(CCS)C(=O)O; assay: purified protein; conditions: 0.5 mM methylcob(III)alamin, 50 mM Tris/HCl pH 6.5, 150 mM NaCl, 10% glycerol, anoxic, 0.1 µM enzyme, racemate, enzyme taken as L-specific, Hill fit

**Q.** With NC(CCS)C(=O)O (racemic) [D,L-homocysteine] as the molecule, how does the “HPLC and MS of products” value [1] read?
**A.** The value was “in the presence of tr-MetEEco, methionine was formed”.

**Q.** For C.C/C1=C2/N[C@H]([C@H](CC(N)=O)[C@@]2(C)CCC(=O)NC[C@@H](C)OP(=O)(O)O[C@H]2[C@@H](O)[C@@H](n3cnc4cc(C)c(C)cc43)O[C@@H]2CO)[C@]2(C)N=C(/C(C)=C3N=C(/C=C4N=C1[C@@H](CCC(N)=O)C\4(C)C)[C@@H](CCC(N)=O)[C@]\3(C)CC(N)=O)[C@@H](CCC(N)=O)[C@]2(C)CC(N)=O.[Co] [MeCbl(III), methylcob(III)alamin], which Km [2] is on record?
**A.** The Km was 236 ± 3 µM.

B1: core-MetECBDB (Dehalococcoides mccartyi CBDB1) (protein)
chain: MTKTDFYFLPTMIGSMPHTDPKAAVDIITHYLRDIPVWPQLPRRSYLEGMSAQFSQGLPGVNINQDKMWIEPNSGFEGELESLYQAYLDNDFNKFPIGVEYAAGLYELASRSNLSPKLVKGHITGPLTYCMSIKDPSGKDILYDEVLSDAATKLLKLKASWQEHFLKKICRNTIIFVDEPAMSAYGSAYLPLSREQVTGMFEEVFSGISGLKGVHCCGNTDWSILMDTSVDIINFDTYSYADSLAIYTDALQAFIKRGGAVAWGIVPTDEKALKEETAASLKDRLEAAMSHFDSKGLPFAELARHSLITPACGLGLKSLDAAERAPELLAELSALLRRKHGTV
**Q.** For B1, which Km [3] is on record?
**A.** Its Km is 98 ± 0 µM.

**Q.** What about the kcat [3] of the same molecule?
**A.** The kcat was about 60 s⁻¹.
